One data set deals with melanoma A375 tumors. Conditions: melanoma A375 tumors implanted into the left ventricle of the heart; cited from earlier work.
Data set [1] is described as follows: solubility in water / aqueous systems. Format: physicochemical.
Another data set relates to hepatitis-C virus. Briefly: mean viral load over time in HCV infected patients (FIG. 1). Type of data set: in vivo. Conditions: various doses and regimens. From the text: Thus, in one aspect of the invention, the one or more discrete dosages are adjusted in amount to provide a highest dose or doses at a time or times corresponding to the time interval when replication of the hepatitis-C virus is highest.

On to `CN(C)C(=O)[C@H](Cc1ccccc1)NC(=O)[C@H]1O[C@@H]1C(=O)NCCc1ccccn1` [CLIK-148], for which, in the data set with melanoma A375 tumors, the “distant bone metastasis to the femur and tibia” value is “reduced”.

By solubility is commonly meant the dissolved amount per volume that the medium holds. A low value points to a poorly soluble substance. Regarding `CC(C)(C)NC(=O)N[C@H](C(=O)N1C[C@H]2[C@@H]([C@H]1C(=O)NC(CC1CCC1)C(=O)C(N)=O)C2(C)C)C(C)(C)C` (stereo partly drawn) [Formula Ia, (1R,5S)—N-[3-Amino-1-(Cyclobutylmethyl)-2,3-Dioxopropyl]-3-[2(S)-[[[(1,1-Dimethylethyl)Amino]Carbonyl]Amino]-3,3-Dimethyl-1-Oxobutyl]-6,6-Dimethyl-3-Azabicyclo[3.1.0]Hexan-2(S)-Carboxamide], the solubility in data set [1] is approximately 600 µg/mL. In the data set with hepatitis-C virus, the “viral load over time” value was “decline in viral load is cyclical”.

Values taken from US20070237818A1, “Controlled-release formulation of HCV protease inhibitor and methods using the same” (priority 2005, published 2007).
